Data set [1] addresses Cathepsin D (Homo sapiens, UniProt P07339). Type of data set: in vitro ADME. Particulars: pH 4.4. The procedure: For identification of Cathepsin B, D, and L metabolism, parent cross-linked peptide and positive control linear peptide (4 mM each in DMSO) was separately aliquoted (5 μL) to 1 mL volumes of 67 mM ammonium acetate solutions buffered either to pH 5.4 (cat B, L) and add 10 mM DTT, or to pH 4.4 (cat D) and add 0.117M KCl. Single enzyme working solution (10 μg/mL) was then added (40 μL) to each peptide solution (20 μM) to yield initial weight ratio (%) of 1:20 for each enzyme and peptide pair. Each mixture was placed in a 38-40° C. oven for incubation times of 30 and 60 min. At each time point, the reaction was stopped by addition of 500 μL of 48:48:2 v/v(%) hexafluoro-2-propanol/acetonitrile/TFA. A biphasic mixture formed after mixing and the bottom layer liquid was diluted (1:10) into acetonitrile: water and subsequently injected in duplicate for gradient LC/Ion Mobility TOF-MS analyses.
Ion mobility-MS and MS-MS analysis and peptide sequencing were performed on a Waters (Milford, Mass.) Synapt high-resolution ion-mobility-time-of flight mass spectrometer. Samples were prepared by dilution of the unpurified cross-linked peptide proteolysis product samples 10-fold into 1:1 acetonitrile-water containing 0.1% formic acid. LC-MS analyses were performed by reverse-phase gradient elution with 0.1% formic acid and 0.1% formic acid in acetonitrile as eluants at 500 μL/min. […]

Data set [2] addresses Bcl-xL (Homo sapiens, UniProt Q07817). The data set is described as follows: Protein-ligand binding experiment by SEC-LC-MS. Particulars: 1 μM SP-4 and 5 μM Bcl-xL, 60 min at room temperature. The procedure: Protein-ligand binding experiments for Bcl-xL. Simple protein-ligand binding experiments were conducted using the following representative procedure outlined for a simple system-wide control experiment using 1 μM SP-4 and 5 μM Bcl-xL. A 1 μL, DMSO aliquot of a 40 μM stock solution of SP-4 is dissolved in 19 μL of PBS (Phosphate-buffered saline: 50 mM, pH 7.5 Phosphate buffer containing 150 mM NaCl). The resulting solution is mixed by repeated pipetting and clarified by centrifugation at 10 000 g for 10 min. To a 4 μL, aliquot of the resulting supernatant is added 4 μL, of 10 μM BCL-xL in PBS. Each 8.0 μL experimental sample thus contains 40 pmol (1.5 μg) of protein at 5.0 μM concentration in PBS plus 1 μM SP-4 and 2.5% DMSO. Duplicate samples thus prepared for each concentration point are incubated for 60 min at room temperature, and then chilled to 4° C. prior to size-exclusion chromatography-LC-MS analysis of 5.0 μL injections. Samples containing a target protein, protein-ligand complexes, and unbound compounds are injected onto an SEC column, where the complexes are separated from non-binding component by a rapid SEC step. The SEC column eluate is monitored using UV detectors to confirm that the early-eluting protein fraction, which elutes in the void volume of the SEC column, is well resolved from unbound components that are retained on the column. […]

Where a SMILES comes first, the peptide text is derived from it. Bridges are numbered along the chain shown (N, C = ends). [ ]: non-standard residue; d: D form. S5 = C=CCCC[C@](C)(N)C(=O)O

Sequence of Cathepsin D (P07339 65-412, species assumed): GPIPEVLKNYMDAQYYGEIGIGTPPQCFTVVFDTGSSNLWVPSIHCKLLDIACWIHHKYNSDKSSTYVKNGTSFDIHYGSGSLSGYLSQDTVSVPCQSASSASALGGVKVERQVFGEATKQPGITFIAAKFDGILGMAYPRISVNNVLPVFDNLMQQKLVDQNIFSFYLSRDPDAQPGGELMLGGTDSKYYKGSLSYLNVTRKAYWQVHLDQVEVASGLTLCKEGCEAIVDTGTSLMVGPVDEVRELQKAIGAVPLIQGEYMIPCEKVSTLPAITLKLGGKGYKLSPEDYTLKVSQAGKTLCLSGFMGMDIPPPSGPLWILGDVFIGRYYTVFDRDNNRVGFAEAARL
Sequence of Bcl-xL (Q07817 whole entry, species assumed): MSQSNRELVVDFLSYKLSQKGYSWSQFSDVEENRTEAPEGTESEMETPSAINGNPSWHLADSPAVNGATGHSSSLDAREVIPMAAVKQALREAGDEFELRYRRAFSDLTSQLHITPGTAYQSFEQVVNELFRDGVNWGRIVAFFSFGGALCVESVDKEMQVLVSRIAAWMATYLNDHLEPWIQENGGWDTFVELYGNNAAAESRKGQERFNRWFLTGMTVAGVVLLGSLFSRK

As to `CC[C@H](C)[C@H](NC(=O)[C@H](Cc1c[nH]c2ccccc12)NC(=O)[C@H](CCCNC(=N)N)NC(C)=O)C(=O)N[C@@H](C)C(=O)N[C@@H](CCC(N)=O)C(=O)N[C@@H](C)C(=O)N[C@@H](CC(C)C)C(=O)N[C@@H](CCCNC(=N)N)C(=O)N[C@@]1(C)CCC/C=C\CCC[C@@](C)(C(=O)N[C@@H](Cc2ccccc2)C(=O)N[C@@H](CC(N)=O)C(=O)N[C@@H](C)C(=O)N[C@@H](Cc2ccccc2)C(=O)N[C@@H](Cc2ccc(O)cc2)C(=O)N[C@@H](C)C(=O)N[C@@H](CCCNC(=N)N)C(=O)N[C@@H](CCCNC(=N)N)C(N)=O)NC(=O)[C@H](CC(=O)O)NC(=O)CNC(=O)[C@H]([C@@H](C)CC)NC1=O` [SP-1, Ac-RWIAQALR$IGD$FNAFYARR-NH2] (Ac-RWIAQALR[S5]IGD[S5]FNAFYARR-NH2; staple (Z) 9-13), the “cleavage site by cathepsin-D (proteolysis products)” value in data set [1] is given as “at F—Y residues”.
For Ac-IWIAQALR$IGD$FNAYYARR-NH2 [SP-4], the “detection of protein-ligand complex with Bcl-xL” value in data set [2] was “detection of the protein-ligand complex”.

The record behind these values is US20110223149A1, “PEPTIDOMIMETIC MACROCYCLES” (AILERON THERAPEUTICS, INC., priority 2009, published 2011).
